Consider one compound from EP0036502B1, “2-Alkyl-5-hydroxy-1,4-naphthoquinones, process for their manufacture and pharmaceutical preparations containing these compounds” (ZYMA GMBH, priority 1980, dated 1981).

This assay deals with Prostaglandinsynthetase. Description: Prostaglandin synthetase inhibition in vitro (method of Baumann et al.). It is filed as biochemical. As to conditions: concentration 10-^3 Mol/I, 1000 µM. An excerpt: Die Erfindung betrifft somit weiterhin die Verwendung der erfindungsgemäßen Verbindungen der allgemeinen Formel I zur Behandlung und Bekämpfung von Entzündungen sowie von allergischen, insbesondere anaphylaktischen Reaktionen. So beträgt beispieslweise die durch 2-Äthyl-5-hydroxy-1,4-naphthochinon hervorgerufene Prostaglandinsynthetase-Hemmung in vitro bei einer Konzentration von 10-^3 Mol/I 87%. Die Bestimmung der Prostaglandinsynthetase-Hemmung wurde nach J. Baumann, F. v. Bruchhausen u. G. Wurm, Naunym-Schmiedeberg's Arch. Pharmacol. 307, 73 (1979) und j. Baumann, G. Wurm u. F. v. Bruchhausen, Arch. Pharm. (Weinheim) 313,330 (1980) durchgeführt.

As for `CCC1=CC(=O)c2c(O)cccc2C1=O` [2-Äthyl-5-hydroxy-1,4-naphthochinon], the Prostaglandinsynthetase-Hemmung in vitro was 87%.
